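Test compounds were applied to cells in 96-well plates for 48 hours at 5 doses. At the GI50, growth is halved. Definition used: TGI = concentration required for complete inhibition of growth.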

Test systems include HT29 colon; HCC-2998 colon; RPMI-8226 leukemia; SK-MEL-28 melanoma; MDA-MB-435; DU-145 prostate; PC-3 prostate; OVCAR-3 ovarian; T-47D breast; HOP-62 NSCLC.
What all share (assay): inhibition of tumour cell growth, NCI panel, 48 h

For `[N-]=[N+]=NC(c1cn(C2CC(O)C(CO)O2)c(=O)[nH]c1=O)C(Cl)Br` (configuration not stated), the TGI with HT29 colon, with HCC-2998 colon, with RPMI-8226 leukemia and with SK-MEL-28 melanoma was over 100 µM in each case.
Regarding `O=[N+]([O-])c1cccc(/C=N/NC2=CS(=O)(=O)C=C2)c1`, the TGI in the assay on HT29 colon, in the assay on MDA-MB-435, in the assay with DU-145 prostate, in the assay with PC-3 prostate, in the assay with RPMI-8226 leukemia and with OVCAR-3 ovarian was over 100 µM in each case. Further, the TGI in the assay with SK-MEL-28 melanoma, in the assay with T-47D breast and in the assay with HOP-62 NSCLC was over 100 µM each time.
Turning to `CO/N=C(\COc1ccc2c(=O)c3ccccc3oc2c1)c1ccccc1`, the GI50 in the assay on HT29 colon is 86.5 µM; in the assay on MDA-MB-435 it was 86.7 µM; with DU-145 prostate, 22.4 µM; in the assay with PC-3 prostate it was 35 µM; in the assay on RPMI-8226 leukemia it was over 100 µM; with OVCAR-3 ovarian, 27.4 µM. Besides, the GI50 in the assay on SK-MEL-28 melanoma was over 100 µM; in the assay with T-47D breast, over 100 µM; with HOP-62 NSCLC, 26.8 µM. The TGI in the assay on HT29 colon is over 100 µM; in the assay with MDA-MB-435, over 100 µM; with DU-145 prostate it was 61.4 µM; in the assay on PC-3 prostate it was over 100 µM; in the assay on RPMI-8226 leukemia it was over 100 µM; in the assay with OVCAR-3 ovarian, 79.3 µM. For the same compound, the TGI in the assay on SK-MEL-28 melanoma was over 100 µM; with T-47D breast, over 100 µM; with HOP-62 NSCLC it was 78.3 µM.
With `O=c1[nH]c(=O)n(C2CC(O)C(CO)O2)cc1Oc1ccccc1` (configuration not stated), the TGI in the assay on HT29 colon, in the assay with MDA-MB-435, in the assay on DU-145 prostate, in the assay on PC-3 prostate, in the assay with RPMI-8226 leukemia and in the assay with OVCAR-3 ovarian was over 100 µM in each case. The TGI in the assay with SK-MEL-28 melanoma, with T-47D breast and with HOP-62 NSCLC was over 100 µM in each case.
For `CC(C)(C)C1CCC2c3c([nH]c4ccccc34)C3C(=O)N(c4ccc(C#N)cc4)C(=O)C3C2C1` (configuration not stated), the TGI with HT29 colon is 20.3 µM; in the assay with MDA-MB-435, over 100 µM; with DU-145 prostate, 35.7 µM; in the assay with HCC-2998 colon, 11.1 µM; in the assay on PC-3 prostate, 17.6 µM; with RPMI-8226 leukemia, over 100 µM. In addition, the TGI with OVCAR-3 ovarian worked out at 90.8 µM; in the assay on SK-MEL-28 melanoma, 36.3 µM; in the assay with HOP-62 NSCLC, 31.2 µM.
Consider `O=C1C2C(C(=O)N1c1ccccc1)C1c3ccccc3C2C2C(=O)N(c3ccccc3)C(=O)C21` (configuration not stated), for which the TGI in the assay on HT29 colon was over 100 µM; in the assay on HCC-2998 colon it was 24.7 µM; with RPMI-8226 leukemia it was over 100 µM; with OVCAR-3 ovarian, over 100 µM; with SK-MEL-28 melanoma, over 100 µM.
As for `Cc1cc(N(CCC#N)S(=O)(=O)c2ccccc2)ccc1/C=C1\N=C(c2ccc(Cl)cc2)OC1=O`, the TGI with HT29 colon, in the assay on HCC-2998 colon, with RPMI-8226 leukemia, with OVCAR-3 ovarian and with SK-MEL-28 melanoma was over 100 µM in each case.
On to `C=C(C)[C@@H]1CCC=C2CC[C@]3(C)[C@H](CC[C@@H]4[C@@]5(C)CCCNC(C)(C)[C@@H]5CC[C@]43C)[C@H]21`, for which the GI50 with MDA-MB-435 was 1.66 µM; in the assay on DU-145 prostate it was 1.86 µM; with PC-3 prostate it was 2.31 µM; with RPMI-8226 leukemia, 2.14 µM; in the assay with OVCAR-3 ovarian, 1.8 µM; in the assay on SK-MEL-28 melanoma it was 2.03 µM. Besides, the GI50 in the assay with T-47D breast is 1.77 µM. Moreover, the TGI came out at 3.11 µM with MDA-MB-435; 3.57 µM in the assay on DU-145 prostate; 6.21 µM with PC-3 prostate; 5.15 µM in the assay on RPMI-8226 leukemia; 3.29 µM with OVCAR-3 ovarian; 4.07 µM with SK-MEL-28 melanoma. The compound also had a TGI with T-47D breast of 4.83 µM.
Turning to `C(/C=N/NC1=NCCCCN1)=N\NC1=NCCCCN1`, the TGI in the assay on HT29 colon, in the assay on MDA-MB-435, in the assay with HCC-2998 colon, in the assay on PC-3 prostate, in the assay on OVCAR-3 ovarian and in the assay with SK-MEL-28 melanoma was over 100 µM in each case. The TGI in the assay on T-47D breast and in the assay with HOP-62 NSCLC was over 100 µM throughout.
Turning to `COC1C(OC(=O)c2ccc(C)[nH]2)C(O)C(Oc2ccc3c(O)c(NC(=O)c4c[nH]c(C(=O)Nc5c(O)c6ccc(OC7OC(C)(C)C(OC)C(OC(=O)c8ccc(C)[nH]8)C7O)c(C)c6oc5=O)c4C)c(=O)oc3c2C)OC1(C)C` (configuration not stated), the TGI came to 16.1 µM in the assay with HT29 colon; 7.26 µM with HCC-2998 colon; 4.83 µM in the assay with RPMI-8226 leukemia; 41.1 µM in the assay with OVCAR-3 ovarian; 2.25 µM in the assay with SK-MEL-28 melanoma.
Turning to `O=C(/C=C(\O)C(=O)O)/C=C(\O)c1ccccc1`, the GI50 is over 1 µM in the assay with HT29 colon; over 100 µM in the assay with HCC-2998 colon; over 100 µM in the assay with RPMI-8226 leukemia; over 1 µM with OVCAR-3 ovarian; over 1 µM with SK-MEL-28 melanoma; over 1 µM with HOP-62 NSCLC. In addition, the TGI was over 100 µM in the assay on HT29 colon; over 100 µM in the assay with HCC-2998 colon; over 100 µM with RPMI-8226 leukemia; over 46.4 µM in the assay with OVCAR-3 ovarian; over 1 µM with SK-MEL-28 melanoma; over 76.2 µM with HOP-62 NSCLC.
As to `C=CC(=O)N1C/C(=C\c2ccc(Cl)c(Cl)c2)C(=O)/C(=C/c2ccc(Cl)c(Cl)c2)C1`, the TGI in the assay with HT29 colon is 0.323 µM; with HCC-2998 colon, 0.446 µM; in the assay with RPMI-8226 leukemia, 0.0983 µM; in the assay with OVCAR-3 ovarian, 0.219 µM; with SK-MEL-28 melanoma it was 1.5 µM; with HOP-62 NSCLC, 0.607 µM.
For `O=c1cc(-c2ccccn2)[nH]c2cccc(F)c12`, the TGI in the assay with HT29 colon, with HCC-2998 colon, with RPMI-8226 leukemia, in the assay on OVCAR-3 ovarian, in the assay on SK-MEL-28 melanoma and in the assay with HOP-62 NSCLC was over 100 µM in each case.
As for `COc1cc(CNc2nc3c(N)cc(C(F)(F)F)cc3nc2-c2ccccc2)cc(OC)c1OC`, the TGI in the assay with HT29 colon, in the assay on HCC-2998 colon, in the assay on RPMI-8226 leukemia, in the assay with OVCAR-3 ovarian, in the assay on SK-MEL-28 melanoma and in the assay on HOP-62 NSCLC was over 100 µM in each case.
Take `CCO/C=C1\N=C(c2ccc(Cl)c(Cl)c2)OC1=O`: the TGI with HT29 colon, in the assay with HCC-2998 colon, in the assay with RPMI-8226 leukemia, in the assay with OVCAR-3 ovarian, in the assay with SK-MEL-28 melanoma and in the assay on HOP-62 NSCLC was over 100 µM in each case.

The record behind these values is PubChem BioAssay (NCI).
